The source of these data is patent US7329485B2, “Methods for detecting compounds that interfere with protein aggregation utilizing an in vitro fluorescence-based assay” (priority 2005, dated 2008).

Entries after “also recorded” stand apart in the source; their conditions may differ.

Experiment [1] deals with HBV core protein (Hepatitis B virus genotype D subtype adw, UniProt P03147). More on the design: concentration leading to formation of aberrant particles: unit not given here. The conditions noted are these: Stray et al., 2005, cited from earlier work.
Experiment [2] has as its target T1, HBV capsid (C150BO) (Hepatitis B virus genotype D subtype adw, UniProt P03147, C107A/C48A/C61A).
T1 construct: For fluorescent labeling, the mutant C150 (Zlotnick et al., 1997); made in house; host or cells: E. coli
In words: BODIPY-FL fluorescence quenching assay of C150BO capsid assembly, compared to size-exclusion chromatography. The format is biochemical, HBV strain adyw. The conditions noted are these: for effect on C150BO assembly (fluorescence, size-exclusion chromatography): 3 μM C150BO, 21° C.; for effect on assembly and quenching in mock assembly reactions: mock-assembled, low salt / no NaCl, time not stated; for effect on fluorescence of mock-assembled C150BO dimer (intrinsic quenching control): early times (up to 2 h). The protocol:
Mutagenesis: For simplicity of chemical labeling, the cysteine residues (C48, C61 and C107) in the assembly domain of HBV strain adyw core protein (amino acids 1-149 (Zlotnick et al., 1996), core protein 149) were mutated to alanine, inserting a unique cysteine residue at the C terminus (C150). Mutagenesis was performed using QuikChange Multi (Stratagene). Mutagenic primers are described in Table III (IDT DNA technologies). Mutations were confirmed by dye terminator dideoxy sequencing (DNA Sequencing Core, Oklahoma Medical Research Foundation). The resulting mutant protein is referred to herein as C150.
Protein expression, purification and dye labeling: Wild-type and mutant truncated HBV capsid protein dimers were expressed and purified from E. coli as described in Zlotnick et al., 1996 and Zlotnick et al., 2002. Protein was quantified by absorbance at 280 nm (ε=60,900 M^−1 cm^−1). DTT levels were maintained at 5 mM throughout purification and storage. Immediately before derivatization, C150 protein was removed from storage buffer by chromatography over a G25 PD10 desalting column (Amersham Biosciences) equilibrated with ice-cold 50 mM HEPES pH 7.5 without DTT. Peak fractions were reacted with BODIPY-FL maleimide (Invitrogen/Molecular Probes) on ice at a final concentration of 4 mM from a 20 mM BODIPY-FL stock in DMSO. Most complete labeling was achieved by overnight reaction, although significant labeling could be achieved by reaction for as little as 10 min. Unreacted dye was removed by separation over a G25 PD10 desalting column equilibrated in ice-cold 50 mM HEPES, pH 7.5. The degree of dye labeling was determined using absorbance at 504 nm (ε504=73,000 M^−1 cm^−1, ε280=1,300 M^−1 cm^−1). The extinction coefficient was calculated by determining the degree of labeling of BODIPY-FL-labeled C150 preps by MALDI-TOF mass spectrometry. Yield of BODIPY-FL-labeled C150 was typically on the order of 1.9 moles of dye per mole of dimer. Labeling of C150 with fluorescein maleimide was compared to BODIPY-FL; BODIPY-FL conjugates gave a much stronger assembly-dependent change in fluorescence than did fluorescein.
Fluorescence and light scattering: Assembly was monitored by fluorescence using a SPEX Fluoromax-2 fluorometer (Horiba Jobin Yvon), using a 0.3-cm path-length cuvette (Hellma) or in black 96-well COSTAR fluorescence microtiter plates (Corning) using a MicroMax adaptor. Assembly reactions were performed at 21° C. Assembly was initiated manually by mixing core protein in 50 mM HEPES, pH 7.5, with buffered NaCl (Sigma) as appropriate. Fluorescence was excited at 504 nm and emission was measured at 509 nm (1-nm band pass for each). For static measurements, all measurements were recorded in triplicate. Qualitatively similar results were obtained using excitation at 495 nm and emission at 512 nm (commonly used for fluorescein fluorescence). Measuring fluorescence of the same reactions in either a cuvette or a 96-well fluorescence microtiter plate gave identical quenching values.
Size-exclusion chromatography: Assembly reactions were examined by SEC on a Superose 6 10/30 column (Amersham Biosciences) mounted on a Shimadzu high-performance liquid chromatography system equipped with an auto injection module (Shimadzu). The column was equilibrated with 50 mM HEPES, pH 7.5, 50 mM NaCl. Recovered protein was assigned either to the void (6.5-7.0 ml), capsid (7.0-8.3 ml), dimer (15-16.5 ml) or intermediate elution (8.3-15 ml).
(Size exclusion chromatography separates by hydrodynamic size, large species first.)

For experiment [3], the target named is T1, HBV capsid (C150BO). In words: Example 2 in vitro assembly reactions with labeled capsid polypeptide C150BO, plate reader. In kind it is biochemical. The conditions noted are these: % assembly at 1 hour (FIG. 7); conditions induced 25% (±5%) assembly in the absence of drugs. On the procedure:
The assays were carried out as described in Example 1, except as described herein after. Samples were read in 3 minute intervals for one hour and again at 24 hours using a Tecan filter-based plate reader with a standard fluorescein filter set.
FIG. 7 illustrates a typical experiment comparing different compounds, including some heteroaryldihydropyrimidine (HAP) derivatives. In this experiment, assembly conditions induced 25% (±5%) assembly in the absence of drugs.

T1 sequence (P03147 1-150, looked up, stated change not applied): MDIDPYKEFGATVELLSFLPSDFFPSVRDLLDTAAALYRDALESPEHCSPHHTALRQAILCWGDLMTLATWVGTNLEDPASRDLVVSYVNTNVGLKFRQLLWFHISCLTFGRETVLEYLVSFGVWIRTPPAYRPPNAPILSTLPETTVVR
Chain of HBV core protein (P03147 1-149): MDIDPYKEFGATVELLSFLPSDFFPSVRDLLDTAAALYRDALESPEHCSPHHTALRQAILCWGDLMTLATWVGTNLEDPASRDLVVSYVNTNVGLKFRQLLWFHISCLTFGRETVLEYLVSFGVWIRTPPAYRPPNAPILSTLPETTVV

Consider `COC(=O)C1=C(C)NC(c2ccccn2)=NC1c1ccc(F)cc1Cl` (stereo not shown) [HAP-1], for which the “concentration leading to formation of aberrant particles” value in experiment [1] (>1 HAP-1 molecule per dimer) was at least 10. The “effect on HBV core protein assembly in vitro” value in experiment [1] (broad range of concentrations) is “enhanced the rate and extent of HBV core protein assembly”. Moreover, in experiment [2] (150 mM NaCl, 24 h (FIG. 6a)), the “effect on C150BO assembly (fluorescence, size-exclusion chromatography)” value is “enhanced assembly, leading to enhanced quenching; also recorded: substantially increased both the rate and the extent of C150BO assembly”. In addition, the “effect on assembly and quenching in mock assembly reactions” value in experiment [2] is on record as “able to induce slow C150BO assembly”. Besides, the “quenching and assembly in mock-assembled controls” value in experiment [2] (without NaCl, after 24 h) was “showed both BODIPY-FL quenching and assembly by SEC”. Further, the “effect on fluorescence of mock-assembled C150BO dimer (intrinsic quenching control)” value in experiment [2] (without NaCl) is recorded as “No reduction in fluorescence; also recorded: no effect on fluorescence”.
Regarding `NC(N)=O` [urea], in experiment [3], the “effect on % assembly of HBV capsid by fluorescence” value was “only showed marginal assembly inhibition”. For the same molecule, the “effect on C150BO assembly (fluorescence, size-exclusion chromatography)” value in experiment [2] (0.5 M NaCl, 24 h (FIG. 6b)) was “inhibited assembly; also recorded: A decrease in assembly by SEC and an increase in fluorescence”. In experiment [2], the “effect on assembly and quenching in mock assembly reactions” value is recorded as “affected neither assembly nor quenching”. Further, the “effect on fluorescence of mock-assembled C150BO dimer (intrinsic quenching control)” value in experiment [2] (without NaCl) is reported as “No reduction in fluorescence”.
